{
  "source": "patent US11066649B2",
  "about": "“Method for inducing human cholangiocyte differentiation” (INSERM (INSTITUT NATIONAL DE LA SANTÉ ET DE LA RECHERCHE …, priority 2014, dated 2021)",
  "molecules": {"B1": {"name": "BMP4: Bone morphogenetic protein 4; Uniprot P12644 (protein, UniProt P12644 293-408, looked up)", "Bone morphogenetic protein 4": "SPKHHSQRARKKNKNCRRHSLYVDFSDVGWNDWIVAPPGYQAFYCHGDCPFPLADHLNSTNHAIVQTLVNSVNSSIPKACCVPTELSAISMLYLDEYDKVVLKNYQEMVVEGCGCR"}},
  "key": {"[1]": {"system": "hESC-Chol", "experiment": "Cellular Ca2+ imaging: intracellular Ca2+ increase after hormonal stimulation", "assay_type": "cell-based, human", "settings": "hESC-Chol at day 23, Fura2-AM loaded", "method": "At day 17, differentiating hESC-Chols were plated on glass coverslips coated with type I collagen and differentiated further into cholangiocyte-like cells as described above. At day 23 hESC-Chols were loaded with 3 μM Fura2-AM (Invitrogen, F1201) in BDM medium (37° C. and 5% CO2), for 45 minutes. Cells were then washed twice, and transferred into a perfusion chamber placed on the stage of a Zeiss inverted microscope (Axiovert 35). Intracellular calcium increases were measured after stimulation with somatostatin (Eumedica), ATP (Sigma), or Acetylcholine (Sigma). Calcium imaging was performed as described previously.^41 Fluorescence images were collected by a charge-coupled device camera (Princeton), digitized and integrated in real time by an image processor (Metafluor, Princeton).\nTo assess the functionality of our hESC-Chol, they analyzed their response to Adenosine triphosphate (ATP), acetylcholine and Somatostatin, known to induce Ca^2+ increase in biliary cells via P2Y1 receptors,^5 M3 muscarinic receptor (AChR M3),^25 Somatostatin receptor type 2 (SSTR2)^26 respectively, as well as type III Inositol 1,4,5-triphosphate (InsP3) receptor (InsP3R), an intracellular Ca^2+ channel, which stimulates release of Ca^2+ from intracellular stores into the cytosol.^27"}, "[2]": {"system": "hESC-Chol", "experiment": "Expression of cholangiocyte markers in hESC-Chol after addition of NaBut", "assay_type": "cell-based, human", "settings": "addition of NaBut on hESC-Chol (1 μM, days 21 to 23)", "method": "(§1) At days 10-12 of differentiation, hESC/hiPSC-hepatoblasts were harvested with cell dissociation buffer (0.1 mg/ml EDTA, 0.5 mg/ml BSA in PBS) and seeded onto 12-well collagen I-coated plates (BD Biosciences) with plating medium (William's E/Ham F12 1:1, 10% FBS (PAA Laboratories), 1 mg/ml fraction V fatty acid-free BSA (Sigma), 1 mM L-glutamine) for 4 hours. Cells were then incubated overnight with biliary differentiation medium (BDM) (William's E/Ham F12 1:1, 10^−5 M linoleic acid-Albumin (Sigma L9530), 5.10^−8 M 3,3′,5-Triiodo-L-thyronine (Sigma T2752), 0.2 IU Insulin, 6.10^−4 M Vitamin C (Boyer), […] (Sigma T5391), 1 mM sodium pyruvate (Gibco)). […]\nTotal RNA was purified with an RNAeasy kit (Qiagen). cDNAs were obtained by using QuantiTect kit (Qiagen 204341) or the High Capacity cDNA Reverse Transcription Kit (Applied Biosystems, Carlsbad, Calif.) according to the manufacturer's instructions. The level of gene expression was measured and analyzed by real-time PCR over 40 cycles using Taqman universal master mix II and Taqman gene expression assays (Applied Biosystems) using an ABI-7000 real-time PCR system and ABI 7000 software. The expression level of CFTR TGR5 (GPBAR-1), SCTR, GGT1, SOX9, AQP1 and JAG was determined in relation to RPL13A, which served as a housekeeping gene. […]"}, "[3]": {"system": "HepaRG-HB", "experiment": "Effect of GH on HepaRG-hepatoblasts", "assay_type": "cell-based, human", "settings": "addition of GH; data not shown", "method": "Independent culture experiments were performed 4 times."}, "[4]": {"system": "hESC-derived differentiating cells", "experiment": "Ki67 staining of differentiating cells after addition of IL-6", "assay_type": "cell-based, human", "settings": "after addition of IL-6 (10 ng/ml)", "method": "as §1\nCells were fixed with 4% Paraformaldehyde for 15 minutes at room temperature and permeabilized with 0.5% Triton X-100 for 15 minutes, 3% BSA-PBS for 30 minutes at room temperature or with 0.2% saponin and 5% donkey serum for 45 minutes at room temperature. […] All the photographs were taken with a Leica HMR microscope (Leica Microsystems), inverted DMIRBE microscope (Leica) using a 20×/0.4 N Plan objective (leica) and a CoolSnapES N&B camera (Photometrics) driven by MetaVue software (Molecular devices), SP5 LEICA DMI 6000 CS Microscope (Leica, Germany) and treated with LAS AF 2.6.0 software, or ACT-1 Nikon software or Cellomics ArrayScan VTI HCS Reader."}, "[5]": {"system": "hepatic progenitors", "experiment": "Effect of periportal mesenchymal factors on commitment of hepatic progenitors toward cholangiocytes", "assay_type": "cell-based, human", "settings": "addition to hepatic progenitors; data not shown"}, "[6]": {"system": "HepaRG-Chol", "settings": "VEGF-165 20 ng/ml for 2 days", "method": "HepaRG-HB cultured in the reduced medium were treated for 2 days with IL-6 (10 ng/ml), then for 2 days with sodium taurocholate hydrate (10 nM) and then for 2 days with sodium taurocholate hydrate (10 nM) and sodium butyrate (1.8 μM) to prevent spontaneous differentiation along the hepatocytic lineage. Independent culture experiments were performed 4 times. For proliferation assay, VEGF-165 (20 ng/ml) (Promokine, C-64420) was added on HepaRG-Chol culture for 2 days. Immunostaining pictures were analyzed and quantification was assessed with Cell Health Profiling BioApplication from Cellomics software."}},
  "data": [
    {"molecule": "Nc1ncnc2c1ncn2[C@@H]1O[C@H](COP(=O)(O)OP(=O)(O)OP(=O)(O)O)[C@@H](O)[C@H]1O", "note": "[ATP, Adenosine triphosphate]", "values": [
      {"measurement": "percentage of responsive cells (Ca2+ increase)", "setting": "[1]", "value": "70%±5"}
    ]},
    {"molecule": "CCCC(=O)[O-].[Na+]", "note": "[NaBut, Sodium Butyrate]", "values": [
      {"measurement": "expression of cholangiocyte markers", "setting": "[2]", "value": "did not significantly change"}
    ]},
    {"molecule": "CC(=O)OCC[N+](C)(C)C", "note": "[acetylcholine]", "values": [
      {"measurement": "percentage of responsive cells (Ca2+ increase)", "setting": "[1]", "value": "40%±4"}
    ]},
    {"molecule": "GH: peptide hormone that stimulates growth and metabolism; Uniprot P01241", "values": [
      {"measurement": "proliferation and differentiation of HepaRG-hepatoblasts", "setting": "[3]", "value": "did not improve"}
    ]},
    {"molecule": "IL-6: polypeptide also known as B cell-stimulating factor 2; Uniprot P05231", "values": [
      {"measurement": "Ki67-positive cycling cells", "setting": "[4]", "value": "up to 68%"}
    ]},
    {"molecule": "TGFβ1: Transforming growth factor beta 1", "values": [
      {"measurement": "cell commitment toward cholangiocytes", "setting": "[5]", "value": "did not induce significant cell commitment"}
    ]},
    {"molecule": "VEGF", "values": [
      {"measurement": "increase in the number of cells in G2/M phases", "setting": "[6]", "value": "two-fold increase"},
      {"measurement": "cell commitment toward cholangiocytes", "setting": "[5]", "value": "did not induce significant cell commitment"}
    ]},
    {"molecule": "B1", "values": [
      {"measurement": "cell commitment toward cholangiocytes", "setting": "[5]", "value": "did not induce significant cell commitment"}
    ]}
  ]
}
